Molecular target: KV4.2 (Homo sapiens, UniProt Q9NZV8)
Assay: Selectivity, HiClamp Xenopus laevis heterologous expression system, KV4.2
Format: cell-based
Conditions: oocytes, NA = no significant inhibition, no IC50 determined
Experimental: Ion channels (Kv1.x, Kv2.1, Kv4.2, Kv10.1) were expressed in Xenopus laevis oocytes by linearization of the plasmids and subsequent in vitro transcription using a commercial T7 or SP6 mMESSAGE mMACHINE transcription kit (Ambion, Carlsbad, California, USA). Defolliculated Xenopus oocytes were then injected with 20–50 nL of the cRNA at a concentration of 1 ng/nL using a micro-injector (Drummond Scientific1, Broomall, PA, USA). The oocytes were incubated in a solution containing (in mM): NaCl, 96; KCl, 2; CaCl2, 1.8; MgCl2, 2 and HEPES, 5 (pH 7.5), supplemented with 50 mg/L gentamycin sulfate and 90 mg/L theophylline. […]
Two-electrode voltage-clamp recordings were performed at room temperature (18–22 °C) using a Geneclamp 500 amplifier (Molecular Devices, San Jose, CA, USA) and pClamp data acquisition (Axon Instruments, Union City, CA, USA) and using an integrated digital TEVC amplifier controlled by HiClamp, an automated Voltage-Clamp Screening System (Multi Channel Systems MCS GmbH, Reutlingen, Germany). Whole-cell currents from oocytes were recorded 1–4 days after injection. […]
For the electrophysiological analysis of the compounds, a number of protocols were applied from a holding potential of −90 mV. […] The concentration dependency of all compounds was assessed by measuring the current inhibition in the presence of increasing compound concentrations. […]

Chain of KV4.2 (Q9NZV8 whole entry): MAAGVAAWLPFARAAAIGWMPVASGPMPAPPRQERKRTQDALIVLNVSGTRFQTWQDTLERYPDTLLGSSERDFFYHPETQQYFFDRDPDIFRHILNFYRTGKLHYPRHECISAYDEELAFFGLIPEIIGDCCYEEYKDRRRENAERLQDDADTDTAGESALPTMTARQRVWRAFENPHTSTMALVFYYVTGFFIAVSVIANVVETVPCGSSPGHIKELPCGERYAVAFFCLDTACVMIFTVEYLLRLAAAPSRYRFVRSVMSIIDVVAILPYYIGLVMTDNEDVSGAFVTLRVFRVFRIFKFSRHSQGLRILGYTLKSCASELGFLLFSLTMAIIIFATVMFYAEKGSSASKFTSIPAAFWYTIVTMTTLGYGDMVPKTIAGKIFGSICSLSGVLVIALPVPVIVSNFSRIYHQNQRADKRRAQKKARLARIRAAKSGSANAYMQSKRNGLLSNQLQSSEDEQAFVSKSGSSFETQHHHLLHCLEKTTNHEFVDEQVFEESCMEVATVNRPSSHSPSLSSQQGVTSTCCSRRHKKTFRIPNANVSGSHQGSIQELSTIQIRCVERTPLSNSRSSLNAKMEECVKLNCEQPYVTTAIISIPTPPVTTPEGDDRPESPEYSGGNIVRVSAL

COc1ccccc1C(=O)NCC1(c2cccs2)CCOC1 (stereo not shown) [Compound 14]
IC50: 2410 ± 880 nM

— publication PMC9179341, “Design of New Potent and Selective Thiophene-Based KV1.3 Inhibitors and Their Potential for Anticancer Activity” (Cancers, 2022)
